Data: the NIST ThermoML archive (doi:10.1021/je2007764)
± gives the expanded uncertainty stated by the source.

Assay: xn = mol fraction of the nth substance listed
Conditions: Fluid (supercritical or subcritical phases), Buoyancy - hydrostatic balance with magnetic suspension - one sinker

[C-]#[O+] [carbon monoxide] + N#N
mass density (324.98 K, 9998.7 kPa, x1 = 0.1002): 101.905 ± 0.12 kg/m3 | mass density (324.98 K, 10007 kPa, x1 = 0.04999): 101.939 ± 0.12 kg/m3 | mass density (324.98 K, 10997 kPa, x1 = 0.04999): 111.619 ± 0.14 kg/m3 | mass density (324.98 K, 11997 kPa, x1 = 0.1002): 121.32 ± 0.15 kg/m3 | mass density (324.98 K, 12000 kPa, x1 = 0.04999): 121.293 ± 0.15 kg/m3 | mass density (324.98 K, 12999 kPa, x1 = 0.04999): 130.817 ± 0.16 kg/m3 | mass density (324.98 K, 13996 kPa, x1 = 0.1002): 140.254 ± 0.17 kg/m3 | mass density (324.98 K, 15957 kPa, x1 = 0.04999): 158.239 ± 0.19 kg/m3 | mass density (324.98 K, 15995 kPa, x1 = 0.1002): 158.639 ± 0.19 kg/m3 | mass density (324.98 K, 17995 kPa, x1 = 0.04999): 176.379 ± 0.21 kg/m3 | mass density (324.98 K, 17996 kPa, x1 = 0.1002): 176.463 ± 0.21 kg/m3 | mass density (324.98 K, 19931 kPa, x1 = 0.04999): 193.033 ± 0.23 kg/m3 | mass density (324.98 K, 19948 kPa, x1 = 0.1002): 193.262 ± 0.23 kg/m3 | mass density (324.99 K, 14116 kPa, x1 = 0.04999): 141.303 ± 0.17 kg/m3 | mass density (349.96 K, 991.96 kPa, x1 = 0.1002): 9.538 ± 0.012 kg/m3 | mass density (349.96 K, 2999.2 kPa, x1 = 0.1002): 28.731 ± 0.035 kg/m3 | mass density (349.96 K, 4997.9 kPa, x1 = 0.1002): 47.663 ± 0.058 kg/m3 | mass density (349.96 K, 6997.9 kPa, x1 = 0.1002): 66.355 ± 0.081 kg/m3 | mass density (349.96 K, 8997.6 kPa, x1 = 0.1002): 84.725 ± 0.1 kg/m3 | mass density (349.96 K, 10998 kPa, x1 = 0.1002): 102.742 ± 0.12 kg/m3 | mass density (349.96 K, 12999 kPa, x1 = 0.1002): 120.335 ± 0.15 kg/m3 | mass density (349.96 K, 14996 kPa, x1 = 0.1002): 137.446 ± 0.17 kg/m3 | mass density (349.96 K, 16994 kPa, x1 = 0.1002): 154.09 ± 0.19 kg/m3 | mass density (349.96 K, 18214 kPa, x1 = 0.1002): 164 ± 0.2 kg/m3 | mass density (349.97 K, 991.18 kPa, x1 = 0.04999): 9.53 ± 0.012 kg/m3 | mass density (349.97 K, 993.39 kPa, x1 = 0.1002): 9.551 ± 0.012 kg/m3 | mass density (349.97 K, 1959 kPa, x1 = 0.04999): 18.808 ± 0.023 kg/m3 | mass density (349.97 K, 1978.8 kPa, x1 = 0.1002): 18.999 ± 0.023 kg/m3 | mass density (349.97 K, 3922.5 kPa, x1 = 0.1002): 37.508 ± 0.046 kg/m3 | mass density (349.97 K, 4004.8 kPa, x1 = 0.04999): 38.283 ± 0.047 kg/m3 | mass density (349.97 K, 5997.7 kPa, x1 = 0.1002): 57.048 ± 0.069 kg/m3 | mass density (349.97 K, 5998.2 kPa, x1 = 0.04999): 57.037 ± 0.069 kg/m3 | mass density (349.97 K, 7998.9 kPa, x1 = 0.1002): 75.601 ± 0.092 kg/m3 | mass density (349.97 K, 8018.6 kPa, x1 = 0.04999): 75.757 ± 0.092 kg/m3 | mass density (349.97 K, 9998.3 kPa, x1 = 0.1002): 93.794 ± 0.11 kg/m3 | mass density (349.97 K, 10022 kPa, x1 = 0.04999): 93.976 ± 0.11 kg/m3 | mass density (349.97 K, 11997 kPa, x1 = 0.1002): 111.586 ± 0.14 kg/m3 | mass density (349.97 K, 12018 kPa, x1 = 0.04999): 111.731 ± 0.14 kg/m3 | mass density (349.97 K, 13995 kPa, x1 = 0.1002): 128.938 ± 0.16 kg/m3 | mass density (349.97 K, 13997 kPa, x1 = 0.04999): 128.911 ± 0.16 kg/m3 | mass density (349.97 K, 15994 kPa, x1 = 0.04999): 145.784 ± 0.18 kg/m3 | mass density (349.97 K, 15994 kPa, x1 = 0.1002): 145.829 ± 0.18 kg/m3 | mass density (349.97 K, 17992 kPa, x1 = 0.04999): 162.172 ± 0.2 kg/m3 | mass density (349.97 K, 17992 kPa, x1 = 0.1002): 162.217 ± 0.2 kg/m3 | mass density (349.97 K, 19655 kPa, x1 = 0.04999): 175.42 ± 0.21 kg/m3 | mass density (349.97 K, 19959 kPa, x1 = 0.1002): 177.859 ± 0.22 kg/m3 | mass density (374.95 K, 1995 kPa, x1 = 0.1002): 17.848 ± 0.022 kg/m3 | mass density (374.95 K, 2998.2 kPa, x1 = 0.1002): 26.743 ± 0.033 kg/m3 | mass density (374.95 K, 4980.9 kPa, x1 = 0.1002): 44.17 ± 0.054 kg/m3 | mass density (374.95 K, 6997.6 kPa, x1 = 0.1002): 61.627 ± 0.075 kg/m3 | mass density (374.95 K, 8997.4 kPa, x1 = 0.1002): 78.624 ± 0.096 kg/m3 | mass density (374.95 K, 10995 kPa, x1 = 0.1002): 95.265 ± 0.12 kg/m3 | mass density (374.95 K, 12994 kPa, x1 = 0.1002): 111.524 ± 0.14 kg/m3 | mass density (374.95 K, 15016 kPa, x1 = 0.1002): 127.569 ± 0.15 kg/m3 | mass density (374.95 K, 16990 kPa, x1 = 0.1002): 142.823 ± 0.17 kg/m3 | mass density (374.95 K, 19967 kPa, x1 = 0.1002): 165.012 ± 0.2 kg/m3 | mass density (374.96 K, 991.14 kPa, x1 = 0.04999): 8.887 ± 0.011 kg/m3 | mass density (374.96 K, 993.41 kPa, x1 = 0.1002): 8.908 ± 0.011 kg/m3 | mass density (374.96 K, 1989.3 kPa, x1 = 0.04999): 17.794 ± 0.022 kg/m3 | mass density (374.96 K, 3998.5 kPa, x1 = 0.04999): 35.556 ± 0.043 kg/m3 | mass density (374.96 K, 4004.8 kPa, x1 = 0.1002): 35.621 ± 0.043 kg/m3 | mass density (374.96 K, 5997.9 kPa, x1 = 0.04999): 52.996 ± 0.065 kg/m3 | mass density (374.96 K, 5999 kPa, x1 = 0.1002): 53.019 ± 0.065 kg/m3 | mass density (374.96 K, 7996.5 kPa, x1 = 0.04999): 70.138 ± 0.085 kg/m3 | mass density (374.96 K, 8024.2 kPa, x1 = 0.1002): 70.391 ± 0.086 kg/m3 | mass density (374.96 K, 9996 kPa, x1 = 0.04999): 86.957 ± 0.11 kg/m3 | mass density (374.96 K, 9997.9 kPa, x1 = 0.1002): 86.999 ± 0.11 kg/m3 | mass density (374.96 K, 11988 kPa, x1 = 0.1002): 103.381 ± 0.13 kg/m3 | mass density (374.96 K, 11996 kPa, x1 = 0.04999): 103.411 ± 0.13 kg/m3 | mass density (374.96 K, 13993 kPa, x1 = 0.1002): 119.504 ± 0.14 kg/m3 | mass density (374.96 K, 13995 kPa, x1 = 0.04999): 119.477 ± 0.14 kg/m3 | mass density (374.96 K, 15990 kPa, x1 = 0.04999): 135.101 ± 0.16 kg/m3 | mass density (374.96 K, 15990 kPa, x1 = 0.1002): 135.151 ± 0.16 kg/m3 | mass density (374.96 K, 17987 kPa, x1 = 0.1002): 150.362 ± 0.18 kg/m3 | mass density (374.96 K, 17988 kPa, x1 = 0.04999): 150.312 ± 0.18 kg/m3 | mass density (374.96 K, 18988 kPa, x1 = 0.1002): 157.82 ± 0.19 kg/m3 | mass density (374.96 K, 19817 kPa, x1 = 0.04999): 163.859 ± 0.2 kg/m3 | mass density (374.96 K, 19971 kPa, x1 = 0.1002): 165.047 ± 0.2 kg/m3 | mass density (400.02 K, 984.4 kPa, x1 = 0.1002): 8.268 ± 0.01 kg/m3 | mass density (400.02 K, 997.16 kPa, x1 = 0.1002): 8.375 ± 0.011 kg/m3 | mass density (400.02 K, 1934.5 kPa, x1 = 0.04999): 16.2 ± 0.02 kg/m3 | mass density (400.02 K, 1975.5 kPa, x1 = 0.1002): 16.545 ± 0.02 kg/m3 | mass density (400.02 K, 2994.3 kPa, x1 = 0.1002): 24.985 ± 0.031 kg/m3 | mass density (400.02 K, 3986.3 kPa, x1 = 0.04999): 33.151 ± 0.04 kg/m3 | mass density (400.02 K, 3997.3 kPa, x1 = 0.1002): 33.254 ± 0.041 kg/m3 | mass density (400.02 K, 4997.1 kPa, x1 = 0.1002): 41.415 ± 0.05 kg/m3 | mass density (400.02 K, 5996.1 kPa, x1 = 0.1002): 49.523 ± 0.06 kg/m3 | mass density (400.02 K, 5998 kPa, x1 = 0.04999): 49.518 ± 0.06 kg/m3 | mass density (400.02 K, 7005.5 kPa, x1 = 0.1002): 57.622 ± 0.07 kg/m3 | mass density (400.02 K, 7994.6 kPa, x1 = 0.1002): 65.495 ± 0.08 kg/m3 | mass density (400.02 K, 7996.6 kPa, x1 = 0.04999): 65.491 ± 0.08 kg/m3 | mass density (400.02 K, 8987 kPa, x1 = 0.1002): 73.307 ± 0.089 kg/m3 | mass density (400.02 K, 9895.5 kPa, x1 = 0.1002): 80.402 ± 0.098 kg/m3 | mass density (400.02 K, 9973.2 kPa, x1 = 0.04999): 80.982 ± 0.098 kg/m3 | mass density (400.02 K, 11025 kPa, x1 = 0.1002): 89.118 ± 0.11 kg/m3 | mass density (400.02 K, 11992 kPa, x1 = 0.04999): 96.459 ± 0.12 kg/m3 | mass density (400.02 K, 11994 kPa, x1 = 0.1002): 96.505 ± 0.12 kg/m3 | mass density (400.02 K, 12991 kPa, x1 = 0.1002): 104.017 ± 0.13 kg/m3 | mass density (400.02 K, 13990 kPa, x1 = 0.04999): 111.428 ± 0.14 kg/m3 | mass density (400.02 K, 13990 kPa, x1 = 0.1002): 111.464 ± 0.14 kg/m3 | mass density (400.02 K, 14988 kPa, x1 = 0.1002): 118.8 ± 0.14 kg/m3 | mass density (400.02 K, 15986 kPa, x1 = 0.04999): 126.014 ± 0.15 kg/m3 | mass density (400.02 K, 15986 kPa, x1 = 0.1002): 126.048 ± 0.15 kg/m3 | mass density (400.02 K, 16227 kPa, x1 = 0.1002): 127.785 ± 0.15 kg/m3 | mass density (400.02 K, 17982 kPa, x1 = 0.1002): 140.257 ± 0.17 kg/m3 | mass density (400.02 K, 17985 kPa, x1 = 0.04999): 140.246 ± 0.17 kg/m3 | mass density (400.02 K, 19027 kPa, x1 = 0.04999): 147.507 ± 0.18 kg/m3 | mass density (400.03 K, 18458 kPa, x1 = 0.1002): 143.591 ± 0.17 kg/m3
